Experiment [1] concerns MYC (DNA, G4) TGAGGGTGGGTAGGGTGGGTAA
Nature of the experiment: fluorescent intercalator displacement (FID). To be noted: 100 mM K+ (KCl) plus potassium phosphate; 20 mM potassium phosphate, pH 6.8; thiazole orange 3.5 µM displaced; DNA 1 µM.

For experiment [2], the system named is ds26 (DNA, duplex) CAATCGGATCGAATTCGATCCGATTG
Nature of the experiment: fluorescent intercalator displacement (FID). To be noted: 100 mM K+ (KCl) plus potassium phosphate; 20 mM potassium phosphate, pH 6.8; thiazole orange 3.5 µM displaced; DNA 1 µM.

The test system is the same in experiment [3]. Nature of the experiment: fluorescence titration (ligand emission). To be noted: 100 mM K+ (KCl) plus potassium phosphate, 20 mM potassium phosphate, pH 6.8, ligand 2 µM, apparent.
In experiment [4] the test system is KRAS (DNA, G4) AGGGCGGTGTGGGAATAGGGAA
In words: fluorescent intercalator displacement (FID). To be noted: 100 mM K+ (KCl) plus potassium phosphate; 20 mM potassium phosphate, pH 6.8; thiazole orange 3.5 µM displaced; DNA 1 µM.

Experiment [5] relates to G4 Tel (DNA, G4) AGGGTTAGGGTTAGGGTTAGGG
In words: fluorescent intercalator displacement (FID). To be noted: 100 mM K+ (KCl) plus potassium phosphate; 20 mM potassium phosphate, pH 6.8; thiazole orange 3.5 µM displaced; DNA 1 µM.

The test system is the same in experiment [6]. Nature of the experiment: fluorescence titration (ligand emission). To be noted: 100 mM K+ (KCl) plus potassium phosphate, 20 mM potassium phosphate, pH 6.8, ligand 2 µM, apparent.
Experiment [7] deals with MYC (DNA, G4) TGAGGGTGGGTAGGGTGGGTAA
Nature of the experiment: fluorescence titration (ligand emission). To be noted: 100 mM K+ (KCl) plus potassium phosphate; 20 mM potassium phosphate, pH 6.8; ligand 2 µM; apparent; Hill n = 3.85.

Experiment [8] concerns KRAS (DNA, G4) AGGGCGGTGTGGGAATAGGGAA
Nature of the experiment: fluorescence titration (ligand emission). To be noted: 100 mM K+ (KCl) plus potassium phosphate; 20 mM potassium phosphate, pH 6.8; ligand 2 µM; apparent; Hill n = 1.59.

For experiment [9], the system named is ds26 (DNA, duplex) CAATCGGATCGAATTCGATCCGATTG
Nature of the experiment: UV-Vis titration (Soret red shift, hypochromism). To be noted: 100 mM K+ (KCl) plus potassium phosphate; 20 mM potassium phosphate, pH 6.8; ligand 2 µM; up to 2.5 equiv. DNA.

Experiment [10] relates to KRAS (DNA, G4) AGGGCGGTGTGGGAATAGGGAA
Nature of the experiment: UV-Vis titration (Soret red shift, hypochromism). To be noted: 100 mM K+ (KCl) plus potassium phosphate; 20 mM potassium phosphate, pH 6.8; ligand 2 µM; up to 2.5 equiv. DNA.

In experiment [11] the test system is MYC (DNA, G4) TGAGGGTGGGTAGGGTGGGTAA
Nature of the experiment: UV-Vis titration (Soret red shift, hypochromism). To be noted: 100 mM K+ (KCl) plus potassium phosphate; 20 mM potassium phosphate, pH 6.8; ligand 2 µM; up to 2.5 equiv. DNA.

Experiment [12] deals with G4 Tel (DNA, G4) AGGGTTAGGGTTAGGGTTAGGG
In words: UV-Vis titration (Soret red shift, hypochromism). To be noted: 100 mM K+ (KCl) plus potassium phosphate; 20 mM potassium phosphate, pH 6.8; ligand 2 µM; up to 2.5 equiv. DNA.

Each structure is given as a SMILES string.

In the case of `C[n+]1ccc(-c2c3nc(c(-c4cc[n+](C)cc4)c4ccc([n-]4)c(-c4cc[n+](C)cc4)c4nc(c(-c5cc[n+](C)cc5)c5ccc2[n-]5)C=C4)C=C3)cc1.[Ag+2]`, the DC50 is 180 ± 30 nM in experiment [1], 2000 ± 370 nM in [2], 280 ± 10 nM in [4] and 1120 ± 270 nM in experiment [5]. For the same molecule, the KD was found to be 10 ± 7 nM in [3] (Hill n = 0.49) and 630 ± 290 nM in [6] (Hill n = 1.0).
For the molecule `C[n+]1ccc(-c2c3nc(c(-c4cc[n+](C)cc4)c4ccc([n-]4)c(-c4cc[n+](C)cc4)c4nc(c(-c5cc[n+](C)cc5)c5ccc2[n-]5)C=C4)C=C3)cc1.[Zn+2]`, the KD was 1320 ± 130 nM in experiment [7], 2690 ± 20 nM in experiment [3] (Hill n = 0.67), 2720 ± 420 nM in experiment [8] and 1300 ± 20 nM in [6] (Hill n = 1.35). Moreover, the DC50 amounted to 200 ± 20 nM in [1], 650 ± 40 nM in experiment [2], 370 ± 10 nM in experiment [4] and 340 ± 20 nM in [5].
On to `C[n+]1ccc(-c2c3nc(c(-c4cc[n+](C)cc4)c4ccc([nH]4)c(-c4cc[n+](C)cc4)c4nc(c(-c5cc[n+](C)cc5)c5ccc2[nH]5)C=C4)C=C3)cc1`, for which the binding result in experiment [9], in experiment [10], in experiment [11] and in [12] was “yes” each time.

These data come from PMC11678824 (2024).
